Test system: QSOX1 sulfhydryl oxidase (oxidizing activity in lot DEVNKB-1)
Assay: Sulfhydryl oxidizing activity of lot DEVNKB-1 with additives (ferrous oxidation xylenol orange, FOX, assay)
Assay type: biochemical, Chinese hamster
Description: Further to characterize the oxidizing activity in lot DEVNKB-1, the lot was tested for sulfhydryl oxidizing activity using the ferrous oxidation xylenol orange (FOX) assay. Sulfhydryl oxidases catalyze the following reaction: 2R—SH+O2→R—S—S—R+H2O2 As the reaction proceeds, oxygen is consumed and hydrogen peroxide is produced. The hydrogen peroxide by-product can be detected readily and reliably, and thus serves as a proxy for sulfhydryl oxidase activity. In the FOX assay, hydrogen peroxide oxidizes ferrous iron (Fe^2+) to produce ferric iron (Fe^3+). The […] complexes with xylenol orange to form a compound that absorbs 560 nm light. Thus, by monitoring absorption of 560 nm light (e.g., using a spectrophotometer), the amount of sulfhydryl oxidizing activity in a sample can be determined. The value of a negative control is compared to the value of the test sample by determining the difference in the 560 nm reading. If the resulting value is greater than 0.1 absorbance units, then the samples is positive for oxidizing impurity. […] Addition of both DEVNKB-1 and 1 mM Zn^2+, however, was only 0.008. […] This is consistent with the oxidizing agent having a flavin-dependent sulfhydryl oxidase domain, such as QSOX1.
Further assays were performed to see whether EDTA could reverse the Zn^2+-dependent elimination of oxidizing activity in lot DEVNKB-1. In these experiments, Zn^2+ was added to the assay buffer, either with or without EDTA. In addition, assay buffer having EDTA was evaluated. […] Addition of both Zn^2+ and additional EDTA, however, reduced the oxidizing activity by only 6%. Thus, the EDTA effectively reversed the Zn^2+-dependent inhibition of oxidizing activity. Again, this is what is expected for an oxidizing agent that has a flavin-dependent sulfhydryl oxidase domain, such as QSOX1.

[1] = Table 2, additive in assay buffer, with or without additional EDTA
[2] = Table 2, relative to assay buffer with additional EDTA (100%)

Row | Difference (absorption without minus with DEVNKB-1) [1] | % Activity [2] | Difference (absorption without minus with DEVNKB-1) (Table 1, additive 1 mM, 560 nm absorption) | Difference (absorption without minus with DEVNKB-1) (Table 1, additive 1 mM, 560 nm absorption, listed as Zn^2+) | % Activity (Table 1, additive 1 mM, relative to DEVNKB-1 without additive) | reduction of oxidizing activity associated with lot DEVNKB-1 (relative to assay buffer that contained additional EDTA) | SMILES
1 | 0.572 | 100% |  |  |  |  | O=C(O)CN(CCN(CC(=O)O)CC(=O)O)CC(=O)O [EDTA]
2 | 0.03097 | 5% | 0.0079 | 0.008 | 1% | 95% | [Zn+2] [Zn2+]

From patent US10457976B2, “Preparing antibodies from CHO cell cultures for conjugation” (SEATTLE GENETICS, INC., priority 2013, dated 2019)
